Test results from patent publication US10681909B2, “Herbicidal triazoles” (FMC Corporation, priority 2014, dated 2020).

How the values were obtained:
bluegrass = test: Test D postemergence; assay type: in vivo, Poa annua; conditions: scale 0 to 100
Method in brief: (§1)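 Test chemicals in a non-phytotoxic solvent with surfactant applied preemergence to seeds in silt loam soil, or postemergence to plants 2–18 cm tall (1- to 4-leaf stage) grown in peat-based medium. Injury visually rated against untreated controls after 14–21 d in a controlled environment.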

wheat, winter = test: Test D preemergence; assay type: in vivo, Triticum aestivum; conditions: scale 0 to 100
Method in brief: as §1

wheat, spring = test: Test D preemergence; assay type: in vivo, Triticum aestivum; conditions: scale 0 to 100
Method in brief: as §1

waterhemp = test: Test C preemergence; assay type: in vivo, Amaranthus rudis; conditions: for Waterhemp plant response rating (0 to 100): Preemergence, visual rating after 13 to 15 d
Method in brief: (§2)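 Surfactant-containing, non-phytotoxic solvent formulations of each compound were applied either preemergence to seeds in a loam soil–sand blend or postemergence to plants 2 to 18 cm tall (1- to 4-leaf stage). Postemergence plants were grown in peat moss–vermiculite medium.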

chickweed = test: Test D preemergence; assay type: in vivo, Stellaria media; conditions: scale 0 to 100
Method in brief: as §1

pigweed = test: Test C preemergence; assay type: in vivo, Amaranthus retroflexus; conditions: for Plant response rating (scale of 0 to 100 where 0 is no effect and 100 is complete control): Pigweed, preemergence; for Pigweed plant response rating (0 to 100): Preemergence, visual rating after 13 to 15 d
Method in brief: as §2

blackgrass = test: Test D preemergence; assay type: in vivo, Alopecurus myosuroides; conditions: scale 0 to 100
Method in brief: as §1

wild mustard = test: Test D postemergence; assay type: in vivo, Sinapis arvensis; conditions: scale 0 to 100
Method in brief: as §1

morningglory = test: Test A preemergence; assay type: in vivo, Ipomoea spp.; conditions: Ipomoea, pre-emergence, 240 h, 0 to 100 scale (0 no effect, 100 complete control), read-out: Plant response rating, Morningglory
Method in brief: (§3)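 Test chemicals in a non-phytotoxic solvent with surfactant were applied as a directed soil spray preemergence to seeds sown in loam/sand. Postemergence sprays went to plants 2–10 cm tall at the one- to two-leaf stage. A dash means no result.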

johnsongrass = test: Test C preemergence; assay type: in vivo, Sorghum halepense; conditions: for Plant response rating (scale of 0 to 100 where 0 is no effect and 100 is complete control): Johnsongrass, preemergence; for Johnsongrass plant response rating (0 to 100): Preemergence, visual rating after 13 to 15 d
Method in brief: as §2

velvetleaf = test: Test C preemergence; assay type: in vivo, Abutilon theophrasti; conditions: for Velvetleaf plant response rating (0 to 100): Preemergence, visual rating after 13 to 15 d
Method in brief: as §2

chamomile = test: Test D preemergence; assay type: in vivo, Matricaria inodora; conditions: scale 0 to 100
Method in brief: as §1

crabgrass, large = test: Test A postemergence; assay type: in vivo, Digitaria sanguinalis; conditions: Digitaria sanguinalis, post-emergence, 240 h, 0 to 100 scale (0 no effect, 100 complete control), approx. 10 d, read-out: Plant response rating, Crabgrass, Large
Method in brief: as §3

## CCOc1nc(-c2ccc(F)cc2)nn1Cc1ccnc(C(F)(F)F)c1 [Compound 8, 4-[[5-ethoxy-3-(4-fluorophenyl)-1H-1,2,4-triazol-1-yl]methyl]-2-(trifluoromethyl)pyridine]
bluegrass; 31 g ai/ha
  Plant response rating: Bluegrass: 55
bluegrass; 62 g ai/ha
  Plant response rating: Bluegrass: 65
bluegrass; 125 g ai/ha
  Plant response rating: Bluegrass: 75
bluegrass; 250 g ai/ha
  Plant response rating: Bluegrass: 75
wheat, winter; 62 g ai/ha
  Plant response rating: Wheat, Winter: 25
wheat, winter; 125 g ai/ha
  Plant response rating: Wheat, Winter: 40
wheat, winter; 250 g ai/ha
  Plant response rating: Wheat, Winter: 65
wheat, spring; 62 g ai/ha
  Plant response rating: Wheat, Spring: 15
wheat, spring; 125 g ai/ha
  Plant response rating: Wheat, Spring: 35
wheat, spring; 250 g ai/ha
  Plant response rating: Wheat, Spring: 70
waterhemp; 31 g ai/ha
  Waterhemp plant response rating (0 to 100): 98
waterhemp; 62 g ai/ha
  Waterhemp plant response rating (0 to 100): 100
waterhemp; Waterhemp, preemergence, 250 g ai/ha
  Plant response rating (scale of 0 to 100 where 0 is no effect and 100 is complete control): 100
chickweed; 31 g ai/ha
  Plant response rating: Chickweed: 100
chickweed; 62 g ai/ha
  Plant response rating: Chickweed: 100
chickweed; 125 g ai/ha
  Plant response rating: Chickweed: 100
chickweed; 250 g ai/ha
  Plant response rating: Chickweed: 100
pigweed; 125 g ai/ha
  Plant response rating (scale of 0 to 100 where 0 is no effect and 100 is complete control): 100
pigweed; 250 g ai/ha
  Plant response rating (scale of 0 to 100 where 0 is no effect and 100 is complete control): 100
pigweed; 31 g ai/ha
  Pigweed plant response rating (0 to 100): 100
pigweed; 62 g ai/ha
  Pigweed plant response rating (0 to 100): 100
blackgrass; 31 g ai/ha
  Plant response rating: Blackgrass: 65
blackgrass; 62 g ai/ha
  Plant response rating: Blackgrass: 70
blackgrass; 125 g ai/ha
  Plant response rating: Blackgrass: 100
blackgrass; 250 g ai/ha
  Plant response rating: Blackgrass: 100
Wild mustard; 31 g ai/ha
  Plant response rating: Mustard, Wild: 100
Wild mustard; 62 g ai/ha
  Plant response rating: Mustard, Wild: 100
Wild mustard; 125 g ai/ha
  Plant response rating: Mustard, Wild: 100
Wild mustard; 250 g ai/ha
  Plant response rating: Mustard, Wild: 100
morningglory; 125 g ai/ha
  pest or weed control at 125 g/ha: 100%
morningglory; 500 g ai/ha, approx. 10 d
  pest or weed control at 500 g/ha: 100%
johnsongrass; 125 g ai/ha
  Plant response rating (scale of 0 to 100 where 0 is no effect and 100 is complete control): 98
johnsongrass; 250 g ai/ha
  Plant response rating (scale of 0 to 100 where 0 is no effect and 100 is complete control): 100
johnsongrass; 31 g ai/ha
  Johnsongrass plant response rating (0 to 100): 85
johnsongrass; 62 g ai/ha
  Johnsongrass plant response rating (0 to 100): 98
velvetleaf; 31 g ai/ha
  Velvetleaf plant response rating (0 to 100): 70
velvetleaf; 62 g ai/ha
  Velvetleaf plant response rating (0 to 100): 85
velvetleaf; Velvetleaf, preemergence, 250 g ai/ha
  Plant response rating (scale of 0 to 100 where 0 is no effect and 100 is complete control): 100
chamomile; 31 g ai/ha
  Plant response rating: Chamomile: 10
chamomile; 62 g ai/ha
  Plant response rating: Chamomile: 30
chamomile; 125 g ai/ha
  Plant response rating: Chamomile: 100
chamomile; 250 g ai/ha
  Plant response rating: Chamomile: 100
crabgrass, large; 125 g ai/ha
  pest or weed control at 125 g/ha: 100%
crabgrass, large; 500 g ai/ha
  pest or weed control at 500 g/ha: 100%
